Earlier results as cited in PubChem BioAssay AID1259409 (Chemical Carcinogenesis Research Information System (CCRIS), 2018).

Test system: rodent chemically induced tumor inhibition, incidence and multiplicity
Test: CCRIS tumor inhibitor studies
Conditions: Route [Inhibitor]: ORAL, Species: RAT; for tumour outcome (control, treated, inhibition, significance): Promoter: NONE USED

## CC(=O)OC/C=C(C)/C=C/C=C(C)/C=C/C1=C(C)CCCC1(C)C
Carcinogen: N-BIS-(2-HYDROXYPROPYL)NITROSAMINE [53609-64-6], Dose [Inhibitor]: 0, 0.1% IN DIET 4 WK BEGINNING 1 WK POST CARCINOGEN DOSE (STUDY DURATION: 5 WK), Strain/Sex: F344/DUCRJ/MALE, Target Tissue: Type of Lesion: THYROID GLAND: ADENOMATOUS GROWTH PATTERN, Dose [Carcinogen]: 2800 MG/KG BW ONCE (STUDY DURATION: 5 WK), Promoter: NONE
  outcome: 0%, 0%, 0%, not significant
Carcinogen: N-METHYL-N-NITROSOUREA, 684-93-5, Dose [Inhibitor]: 0, 328 MG/KG DIET FOR 88 D BEGINNING 2 D POST CARCINOGEN DOSE (STUDY DURATION: 90 D), Strain/Sex: SPRAGUE-DAWLEY/FEMALE, Target Tissue: Type of Lesion: MAMMARY GLAND: ADENOCARCINOMA, Dose [Carcinogen]: 45 MG/KG BW ONCE
  tumour outcome (control, treated, inhibition, significance): 100%, 73%, 27%, p<0.05
Carcinogen: N-METHYL-N-NITROSOUREA, 684-93-5, Dose [Inhibitor]: 0, 328 MG/KG OF DIET BEGINNING 2 D POST CARCINOGEN DOSE AND CONTINUING FOR DURATION OF STUDY (STUDY DURATION: 90 D), Strain/Sex: SPRAGUE-DAWLEY/FEMALE, Target Tissue: Type of Lesion: MAMMARY GLAND: ADENOCARCINOMA, Dose [Carcinogen]: 45 MG/KG BW ONCE AT 50 D OF AGE
  tumour outcome (control, treated, inhibition, significance): 100%, 80%, 20%, not calculated
Carcinogen: N-METHYL-N-NITROSOUREA, 684-93-5, Dose [Inhibitor]: 0, 328 MG/KG OF DIET FOR DURATION OF STUDY BEGINNING 1 WK PRIOR TO CARCINOGEN TREATMENT (STUDY DURATION: 117 D), Strain/Sex: SPRAGUE-DAWLEY /FEMALE, Target Tissue: Type of Lesion: MAMMARY GLAND: ADENOCARCINOMA, Dose [Carcinogen]: 50 MG/KG BW ONCE
  tumour outcome (control, treated, inhibition, significance): 100%, 84%, 16%, not significant
Carcinogen: N-METHYL-N-NITROSOUREA, 684-93-5, Dose [Inhibitor]: 0.8 MMOL/KG DIET DAILY STARTING 12 D AFTER CARCINOGEN TREATMENT THROUGH ABOUT 8 MO AFTER FIRST CARCINOGEN DOSE (STUDY DU, Strain/Sex: F344/MALE, Target Tissue: Type of Lesion: COLON: ADENOCARCINOMA, Dose [Carcinogen]: 2.5 MG 1/WK FOR 2 WK
  tumour outcome (control, treated, inhibition, significance): 5/39 (13%), 4/29 (14%), -8%, not significant
Carcinogen: N-METHYL-N-NITROSOUREA, 684-93-5, Dose [Inhibitor]: 0.8 MMOL/KG DIET DAILY STARTING 12 D AFTER CARCINOGEN TREATMENT THROUGH ABOUT 8 MO AFTER FIRST CARCINOGEN DOSE (STUDY DU, Strain/Sex: F344/MALE, Target Tissue: Type of Lesion: COLON: ADENOMA, Dose [Carcinogen]: 2.5 MG 1/WK FOR 2 WK
  tumour outcome (control, treated, inhibition, significance): 16/39 (41%), 9/29 (31%), 24%, not significant
Carcinogen: N-METHYL-N-NITROSOUREA, 684-93-5, Dose [Inhibitor]: 1.0 MM IN DIET DAILY (328 MG/KG DIET) STARTING D 60 OF AGE UNTIL END OF STUDY (STUDY DURATION: 4 MO), Strain/Sex: SPRAGUE-DAWLEY/FEMALE, Target Tissue: Type of Lesion: MAMMARY GLAND: CARCINOMA, Dose [Carcinogen]: 2.5 MG/100 G BODY WEIGHT IN 0.9% NACL SOLUTION ADMINISTERED AT D 50 AND 57 OF AGE
  tumour outcome (control, treated, inhibition, significance): 87%, 54%, 38%, p<0.01
Carcinogen: N-METHYL-N-NITROSOUREA, 684-93-5, Dose [Inhibitor]: 1 MMOL/KG DIET DAILY STARTING 3 D AFTER LAST CARCINOGEN DOSE THROUGH END OF STUDY (STUDY DURATION: 129 D), Strain/Sex: SPRAGUE-DAWLEY/FEMALE, Target Tissue: Type of Lesion: MAMMARY GLAND: TUMOR, Dose [Carcinogen]: 50 MG/KG BW AT BOTH 50 AND 57 D OF AGE
  tumour outcome (control, treated, inhibition, significance): 17/17 (100%), 12/18 (67%), 33%, p<0.001
Carcinogen: N-METHYL-N-NITROSOUREA, 684-93-5, Dose [Inhibitor]: 1 MMOL/KG DIET DAILY STARTING 3 D AFTER LAST CARCINOGEN DOSE THROUGH END OF STUDY (STUDY DURATION: 182 D), Strain/Sex: SPRAGUE-DAWLEY/FEMALE, Target Tissue: Type of Lesion: MAMMARY GLAND: TUMOR, Dose [Carcinogen]: 15 MG/KG BW AT BOTH 50 AND 57 D OF AGE
  tumour outcome (control, treated, inhibition, significance): 12/40 (30%), 5/39 (13%), 57%, not significant
Carcinogen: N-METHYL-N-NITROSOUREA, 684-93-5, Dose [Inhibitor]: 2 MMOL/KG DIET DAILY STARTING 3 D AFTER LAST CARCINOGEN DOSE THROUGH END OF STUDY (STUDY DURATION: 129 D), Strain/Sex: SPRAGUE-DAWLEY/FEMALE, Target Tissue: Type of Lesion: MAMMARY GLAND: TUMOR, Dose [Carcinogen]: 50 MG/KG BW AT BOTH 50 AND 57 D OF AGE
  tumour outcome (control, treated, inhibition, significance): 17/17 (100%), 2/16 (13%), 87%, p<0.001
Carcinogen: N-METHYL-N-NITROSOUREA, 684-93-5, Dose [Inhibitor]: 2 MMOL/KG DIET DAILY STARTING 3 D AFTER LAST CARCINOGEN DOSE THROUGH END OF STUDY (STUDY DURATION: 182 D), Strain/Sex: SPRAGUE-DAWLEY/FEMALE, Target Tissue: Type of Lesion: MAMMARY GLAND: TUMOR, Dose [Carcinogen]: 15 MG/KG BW AT BOTH 50 AND 57 D OF AGE
  tumour outcome (control, treated, inhibition, significance): 12/40 (30%), 0/40 (0%), 100%, p<0.001
Carcinogen: N-METHYL-N-NITROSOUREA, 684-93-5, Dose [Inhibitor]: 300 MG/KG OF DIET DAILY STARTING 7 D AFTER CARCINOGEN TREATMENT AND CONTINUING FOR DURATION OF STUDY (STUDY DURATION: 13, Strain/Sex: SPRAGUE-DAWLEY/FEMALE, Target Tissue: Type of Lesion: MAMMARY GLAND: ADENOCARCINOMA, Dose [Carcinogen]: 50 MG/KG BW IN 0.9% SALINE ONCE AT 50 D OF AGE
  tumour outcome (control, treated, inhibition, significance): 25/25 (100%), 23/25 (92%), 8%, not significant
Carcinogen: N-METHYL-N-NITROSOUREA, 684-93-5, Dose [Inhibitor]: 328 MG/KG DIET DAILY FOR 4 MO STARTING 10 D AFTER START OF CARCINOGEN TREATMENT AND CONTINUING FOR DURATION OF STUDY (ST, Strain/Sex: SPRAGUE-DAWLEY/FEMALE, Target Tissue: Type of Lesion: MAMMARY GLAND: ADENOCARCINOMA, Dose [Carcinogen]: 2.5 MG/100 G BW IN 0.9% SALINE AND ACIDIFIED (PH 4 TO 5) WITH ACETIC ACID AT AGES 50 AND 57 D
  tumour outcome (control, treated, inhibition, significance): 88%, 53%, 40%, p<0.01
Carcinogen: N-METHYL-N-NITROSOUREA, 684-93-5, Dose [Inhibitor]: 328 MG/KG IN DIET BEGINNING AT D 60 (STUDY DURATION: 129 D), Strain/Sex: SPRAGUE-DAWLEY/FEMALE, Target Tissue: Type of Lesion: MAMMARY GLAND: TUMOR, Dose [Carcinogen]: 2.5 MG/100 G AT 50 AND 57 D OF AGE
  tumour outcome (control, treated, inhibition, significance): 22/30 (73%), 11/30 (37%), 49%, p<0.005
Carcinogen: N-METHYL-N-NITROSOUREA, 684-93-5, Dose [Inhibitor]: 328 MG/KG IN DIET BEGINNING AT D 60 (STUDY DURATION: 175 D), Strain/Sex: SPRAGUE-DAWLEY/FEMALE, Target Tissue: Type of Lesion: MAMMARY GLAND: TUMOR, Dose [Carcinogen]: 1.25 MG/100 G BODY WEIGHT IN 0.9% NACL SOLUTION ADMINISTERED AT D 50 AND 57 OF AGE
  tumour outcome (control, treated, inhibition, significance): 8/30 (27%), 3/30 (10%), 63%, p<0.01
Dose [Inhibitor]: 3 UMOL/G DIET, Strain/Sex: SPRAGUE-DAWLEY/FEMALE, Target Tissue: Type of Lesion: LIVER: TUMOR, Dose [Carcinogen]: 1 PPM IN DIET
  tumour outcome (control, treated, inhibition, significance): 76%, 79%, -4%, not calculated
Dose [Inhibitor]: 3 UMOL/G DIET, Strain/Sex: SPRAGUE-DAWLEY/MALE, Target Tissue: Type of Lesion: LIVER: TUMOR, Dose [Carcinogen]: 1 PPM IN DIET
  tumour outcome (control, treated, inhibition, significance): 89%, 88%, 1%, not calculated
Dose [Inhibitor]: 30 UMOL/G DIET, Strain/Sex: SPRAGUE-DAWLEY/FEMALE, Target Tissue: Type of Lesion: LIVER: TUMOR, Dose [Carcinogen]: 1 PPM IN DIET
  tumour outcome (control, treated, inhibition, significance): 76%, 84%, -11%, not calculated
Dose [Inhibitor]: 30 UMOL/G DIET, Strain/Sex: SPRAGUE-DAWLEY/MALE, Target Tissue: Type of Lesion: LIVER: TUMOR, Dose [Carcinogen]: 1 PPM IN DIET
  tumour outcome (control, treated, inhibition, significance): 89%, 92%, -3%, not calculated
